For 32 compounds, EC50 results are on record in ChEMBL document CHEMBL5108050, “Discovery of a New Class of Uracil Derivatives as Potential Mixed Lineage Kinase Domain-like Protein (MLKL) Inhibitors” (J Med Chem, 2022).

Some results are limits rather than exact numbers.

This assay concerns HT-29. The assay is described as follows: Anti-necroptic activity in human HT-29 cells assessed as inhibition of TSZ (TNFalpha, Smac mimetic and z-VAD-FMK) induced necroptosis incubated for 24 hrs by celltiter-glo luminescent cell viability assay. Type of assay: functional, cell-based. As to conditions: HT-29, 24 h.
Broadly, the EC50 is the concentration that produces a half-maximal response. `COc1cccn(Cc2cccc(C#CCn3c(Cl)c(NC(=O)CCc4ccc(C)cc4)c(=O)n(C)c3=O)c2)c1=O`: the EC50 turned out to be 82 nM.
The figure for `Cc1ccc(CCC(=O)Nc2c(Cl)n(CC#Cc3ccc(NC(=O)c4ccccc4)cc3)c(=O)n(C)c2=O)cc1` is 214 nM; for `C=CS(=O)(=O)Nc1c(C)n(CC#Cc2cccc(O)c2)c(=O)n(C)c1=O` it is above 10000 nM; for `CC(=O)Nc1cccc(C#CCn2c(Cl)c(NC(=O)CCc3ccc(C)cc3)c(=O)n(C)c2=O)c1` it is 870 nM.
As to `Cc1ccc(CCC(=O)Nc2c(Cl)n(CC#Cc3ccc4c(c3)CCC(=O)N4C)c(=O)n(C)c2=O)cc1`, the EC50 stood at 281 nM.
Consider `CCCn1c(=O)c(NC(=O)CCc2ccc(C)cc2)c(Cl)n(CC#Cc2ccc(O)cc2)c1=O`, for which the EC50 was determined as 1020 nM.
`C=CS(=O)(=O)Nc1c(Cl)n(CC#Cc2cccc(O)c2)c(=O)n(C)c1=O`: the EC50 is 5680 nM.
The result for `C=CC(=O)Nc1c(C)n(CC#Cc2cccc(O)c2)c(=O)n(C)c1=O` reads above 10000 nM; that for `Cc1ccc(CCC(=O)Nc2c(Cl)n(CC#Cc3cccc(Cn4cccc(C)c4=O)c3)c(=O)n(C)c2=O)cc1`, 134 nM; that for `Cc1ccc(CCC(=O)Nc2c(Cl)n(CC#Cc3ccc(O)cc3)c(=O)n(CC3CCCC3)c2=O)cc1`, above 10000 nM.
The result for `Cc1ccc(CCC(=O)Nc2c(Cl)n(CC#Cc3ccccc3)c(=O)n(C)c2=O)cc1` reads 1990 nM.
For the compound `C#CCn1c(Cl)c(NC(=O)CCc2ccc(C)cc2)c(=O)n(C)c1=O`, the EC50 worked out at 7240 nM.
The result for `CCc1ccc(CCC(=O)Nc2c(Cl)n(CC#Cc3cccc(O)c3)c(=O)n(C)c2=O)cc1` reads 998 nM; that for `COc1ccc(CC(=O)Nc2c(Cl)n(CC#Cc3cccc(O)c3)c(=O)n(C)c2=O)cc1`, 1400 nM; that for `Cc1ccc(CCC(=O)Nc2c(Cl)n(CC#Cc3cccc(Cn4cc(C)ccc4=O)c3)c(=O)n(C)c2=O)cc1`, 158 nM.
The result for `Cc1ccc(CCC(=O)Nc2c(Cl)n(CC#Cc3ccc4c(c3)CCC(=O)O4)c(=O)n(C)c2=O)cc1` reads 113 nM.
For the compound `Cn1c(=O)c(NC(=O)CCc2ccc(C#N)cc2)c(Cl)n(CC#Cc2cccc(O)c2)c1=O`, the EC50 is 639 nM.
The result for `Cc1ccc(CCC(=O)Nc2c(Cl)n(CC#Cc3ccc(NCc4ccccc4)cc3)c(=O)n(C)c2=O)cc1` reads 2020 nM.
`COc1cccn(Cc2cc(C#CCn3c(Cl)c(NC(=O)CCc4ccc(C)cc4)c(=O)n(C)c3=O)ccc2F)c1=O`: the EC50 was 91 nM.
The result for `CCC(C)C(=O)Nc1c(Cl)n(CC#Cc2cccc(O)c2)c(=O)n(C)c1=O` (configuration not stated) reads 1740 nM.
The result for `Cn1c(=O)c(NC(=O)CCc2cccc(F)c2)c(Cl)n(CC#Cc2cccc(O)c2)c1=O` reads 6300 nM; that for `C=CS(=O)(=O)Nc1cn(CC#Cc2cccc(O)c2)c(=O)n(C)c1=O`, 2480 nM.
The result for `Cn1c(=O)c(NC(=O)CCc2ccccc2)c(Cl)n(CC#Cc2cccc(O)c2)c1=O` reads 1070 nM; that for `Cn1c(=O)c(NC(=O)CCc2ccc(F)cc2)c(Cl)n(CC#Cc2cccc(O)c2)c1=O`, 455 nM; that for `Cn1c(=O)c(NC(=O)/C=C/c2ccccc2)c(Cl)n(CC#Cc2cccc(O)c2)c1=O`, above 10000 nM.
As for `COc1ccc(C#CCn2c(Cl)c(NC(=O)CCc3ccc(C)cc3)c(=O)n(C)c2=O)cc1`, the EC50 was found to be 3390 nM.
For `CCn1c(=O)c(NC(=O)CCc2ccc(C)cc2)c(Cl)n(CC#Cc2ccc(O)cc2)c1=O`, the EC50 was 2220 nM.
The figure for `C=CS(=O)(=O)Nc1c(OC)n(CC#Cc2cccc(O)c2)c(=O)n(C)c1=O` is above 10000 nM.
The figure for `Cc1ccc(CCC(=O)Nc2c(Cl)n(CC#Cc3ccc4cc[nH]c4c3)c(=O)n(C)c2=O)cc1` is 727 nM; for `COCCOCC(=O)Nc1c(Cl)n(CC#Cc2cccc(O)c2)c(=O)n(C)c1=O` it is 4270 nM; for `Cc1ccc(CCC(=O)Nc2c(Cl)n(CC#Cc3cccc(Cn4ccc(C)cc4=O)c3)c(=O)n(C)c2=O)cc1` it is 106 nM.
The figure for `COc1ccc(C#CCn2c(Cl)c(NC(=O)CCc3ccc(C)cc3)c(=O)n(C)c2=O)cc1Cn1ccccc1=O` is 85 nM.
